Laboratory results: ChEMBL document CHEMBL1201862, “PubChem BioAssay data set” (2004)
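Dose response: 5 concentrations. Exposure: 48 h. Format: 96-well plates. Endpoint: linear interpolation; highest concentration if not reached. Here, GI50 denotes the concentration required for 50% inhibition of growth.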 Activity calls are given as the source filed them. No stated cut-off is given here; in the data, active = GI50 up to about 1.1 µM and inactive = higher.

How the values were obtained:
Assay in all cases: growth of human tumour cells (NCI), 48 h
[1] = test system: IGROV-1
[2] = test system: SK-MEL-2
[3] = test system: SNB-19
[4] = test system: MDA-N
[5] = test system: Hs-578T
[6] = test system: LOX IMVI
[7] = test system: HOP-92
[8] = test system: SK-MEL-5
[9] = test system: OVCAR-5
[10] = test system: TK-10
[11] = test system: SF-295
[12] = test system: UACC-257
[13] = test system: OVCAR-8
[14] = test system: DU-145
[15] = test system: ACHN
[16] = test system: PC-3
[17] = test system: 786-0
[18] = test system: SK-MEL-28
[19] = test system: SF-268
[20] = test system: SR

CCOC1OCCCC1Br (centres undefined)
GI50 [1]: > 100 µM (inactive)
GI50 [2]: > 100 µM (inactive)
GI50 [3]: > 100 µM (inactive)
GI50 [4]: > 100 µM (inactive)
GI50 [5]: > 100 µM (inactive)
GI50 [6]: > 100 µM (inactive)
GI50 [7]: > 100 µM (inactive)
GI50 [8]: > 100 µM (inactive)
GI50 [9]: > 100 µM (inactive)
GI50 [10]: > 100 µM (inactive)
GI50 [11]: > 100 µM (inactive)
GI50 [12]: > 100 µM (inactive)
GI50 [13]: > 100 µM (inactive)
GI50 [14]: > 100 µM (inactive)
GI50 [15]: > 100 µM (inactive)
GI50 [16]: > 100 µM (inactive)
GI50 [17]: > 100 µM (inactive)
GI50 [18]: > 100 µM (inactive)
GI50 [19]: > 100 µM (inactive)
GI50 [20]: > 100 µM (inactive)

Cc1c2ccnc(C(=O)NCCN(C)C)c2cc2c3cc(O)ccc3n(C)c12
GI50 [1]: 0.277 µM (active)
GI50 [2]: 0.499 µM (active)
GI50 [3]: 0.184 µM (active)
GI50 [4]: 0.286 µM (active)
GI50 [5]: 0.204 µM (active)
GI50 [6]: 0.11 µM (active)
GI50 [7]: 0.235 µM (active)
GI50 [8]: 0.149 µM (active)
GI50 [9]: 0.76 µM (active)
GI50 [10]: 2 µM (inactive)
GI50 [11]: 0.0671 µM (active)
GI50 [12]: 1.53 µM (inactive)
GI50 [13]: 0.1 µM (active)
GI50 [14]: 0.0649 µM (active)
GI50 [15]: 0.0188 µM (active)
GI50 [16]: 0.115 µM (active)
GI50 [17]: 0.0542 µM (active)
GI50 [18]: 0.328 µM (active)
GI50 [19]: 0.0676 µM (active)
GI50 [20]: < 0.0184 µM (active)

O=C(CCc1cc(O)cc(O)c1)NCCc1cc(O)cc(OCc2ccccc2)c1
GI50 [1]: 59.3 µM (inactive)
GI50 [2]: 44.8 µM (inactive)
GI50 [3]: 26.4 µM (inactive)
GI50 [4]: 27.5 µM (inactive)
GI50 [5]: 32.1 µM (inactive)
GI50 [6]: 33.7 µM (inactive)
GI50 [7]: 53.1 µM (inactive)
GI50 [8]: 19.1 µM (inactive)
GI50 [9]: 63 µM (inactive)
GI50 [10]: > 100 µM (inactive)
GI50 [11]: 32.9 µM (inactive)
GI50 [12]: 82.4 µM (inactive)
GI50 [13]: 34.3 µM (inactive)
GI50 [14]: 33.1 µM (inactive)
GI50 [15]: 24.7 µM (inactive)
GI50 [16]: 37.8 µM (inactive)
GI50 [17]: 64.9 µM (inactive)
GI50 [18]: 54.8 µM (inactive)
GI50 [19]: 29.6 µM (inactive)
GI50 [20]: 30.5 µM (inactive)

CC1=NN(c2cccc(Cl)c2)C2(SCC(=O)N2c2nc3ccccc3s2)/C1=C\c1ccccc1O (centres undefined)
GI50 [1]: 17.4 µM (inactive)
GI50 [2]: 17.6 µM (inactive)
GI50 [4]: 22.3 µM (inactive)
GI50 [5]: 27.8 µM (inactive)
GI50 [6]: 30.5 µM (inactive)
GI50 [7]: 10.1 µM (inactive)
GI50 [8]: 13.4 µM (inactive)
GI50 [9]: 25.4 µM (inactive)
GI50 [10]: 42.4 µM (inactive)
GI50 [11]: 25.8 µM (inactive)
GI50 [12]: 31.4 µM (inactive)
GI50 [13]: 18.1 µM (inactive)
GI50 [14]: 18.3 µM (inactive)
GI50 [15]: 15.5 µM (inactive)
GI50 [16]: 19.8 µM (inactive)
GI50 [17]: 16.3 µM (inactive)
GI50 [18]: 24.8 µM (inactive)
GI50 [19]: 22.6 µM (inactive)
GI50 [20]: 13.7 µM (inactive)

COc1cc(OC)c2nc(C)c3c(c2c1)NCC3
GI50 [1]: 9.75 µM (inactive)
GI50 [2]: 9.42 µM (inactive)
GI50 [3]: 12.6 µM (inactive)
GI50 [4]: 8.09 µM (inactive)
GI50 [5]: 2.56 µM (inactive)
GI50 [6]: 3.25 µM (inactive)
GI50 [7]: 13.3 µM (inactive)
GI50 [8]: 10 µM (inactive)
GI50 [9]: 6.28 µM (inactive)
GI50 [10]: 7.91 µM (inactive)
GI50 [11]: 11.2 µM (inactive)
GI50 [12]: 3.91 µM (inactive)
GI50 [13]: 4.51 µM (inactive)
GI50 [14]: 21.6 µM (inactive)
GI50 [15]: 4.88 µM (inactive)
GI50 [16]: 6.03 µM (inactive)
GI50 [17]: 4.42 µM (inactive)
GI50 [18]: 15.2 µM (inactive)
GI50 [19]: 5.92 µM (inactive)
GI50 [20]: 2.89 µM (inactive)

Cc1ccc(O)c(C2=CC3=NNC(=O)C3C(c3cccc(Br)c3)C2)c1 (centres undefined)
GI50 [1]: 23.1 µM (inactive)
GI50 [2]: 27.4 µM (inactive)
GI50 [3]: 34.2 µM (inactive)
GI50 [4]: 23.7 µM (inactive)
GI50 [5]: 27.1 µM (inactive)
GI50 [6]: 14 µM (inactive)
GI50 [7]: 16.6 µM (inactive)
GI50 [8]: 23.1 µM (inactive)
GI50 [9]: 21.8 µM (inactive)
GI50 [10]: 18.6 µM (inactive)
GI50 [11]: 18.8 µM (inactive)
GI50 [12]: 45.2 µM (inactive)
GI50 [13]: 20.8 µM (inactive)
GI50 [14]: 29.2 µM (inactive)
GI50 [15]: 24 µM (inactive)
GI50 [16]: 34.3 µM (inactive)
GI50 [17]: 29.5 µM (inactive)
GI50 [18]: 20.6 µM (inactive)
GI50 [19]: 23 µM (inactive)
GI50 [20]: 21.2 µM (inactive)

CC1(C=O)CC(CCc2ccccc2)NC1Cc1ccc(O)cc1 (centres undefined)
GI50 [1]: 14 µM (inactive)
GI50 [2]: 14.8 µM (inactive)
GI50 [3]: 14.5 µM (inactive)
GI50 [4]: 17.4 µM (inactive)
GI50 [5]: 19.5 µM (inactive)
GI50 [6]: 17 µM (inactive)
GI50 [7]: 15.3 µM (inactive)
GI50 [8]: 15.6 µM (inactive)
GI50 [9]: 17.4 µM (inactive)
GI50 [10]: 17.3 µM (inactive)
GI50 [11]: 17.7 µM (inactive)
GI50 [12]: 15.1 µM (inactive)
GI50 [13]: 21 µM (inactive)
GI50 [14]: 17.5 µM (inactive)
GI50 [15]: 15.3 µM (inactive)
GI50 [16]: 13.8 µM (inactive)
GI50 [17]: 15.2 µM (inactive)
GI50 [18]: 22.1 µM (inactive)
GI50 [19]: 16.6 µM (inactive)
GI50 [20]: 12 µM (inactive)
